Source: patent US11655269B2, “Prodrug-type anticancer agent using cancer-specific enzymatic activity” (The University of Tokyo, priority 2018, dated 2023)
Each block holds one molecule with its values, some of them ahead of it.

Columns and labels:
[1] = test system: H226 cells (high DPP-IV expression) and H460 cells (low DPP-IV expression); assay: CCK-8 assay, cells with high and low DPP-IV expression; format: cell-based, human; conditions: H226 (high DPP-IV) vs H460 (low DPP-IV), 1-50 μM, 24 hours; FIG. 6
Method: (§1) Next, it was verified whether compounds 1-3 can change the cell viability by functioning as a prodrug when administered to cells with high and low enzyme expression. The efficacy studies were carried out by using a general colorimetric method called CCK-8 assay (method for quantifying the dehydrogenase activity inside living cells through reduction of colorless WST-8 to orange formazan) to quantify the number of living cells. The CCK-8 assay evaluation method is described below.
(§2) The B-galactosidase-activated prodrug was evaluated using HEK/lac Z cells (cells derived from human kidney cells, high β-Gal expression) and HEK293 cells (cells derived from human kidney cells, low β-Gal expression). The DPP-IV-activated prodrug was evaluated using H226 cells (human lung squamous cell carcinoma cells, high DPP-IV expression) and H460 cells (human non-small cell epithelial lung cancer cells, low DPP-IV expression). The GGT-activated prodrug was evaluated using SHIN3 cells (human ovarian cancer cells, high GGT expression) and H226 cells (human lung squamous cell carcinoma cells, low GGT expression).
(§3) Each type of cell was seeded in 96-well plates (cell density: 1.0×10^4/well) and incubated overnight. […] After 2.5 hours, the 450 nm absorbance was measured by a plate reader, and the number of viable cells was quantified.

DPP-IV = DPP-IV (Homo sapiens, UniProt P27487); assay: Enzymatic reaction with purified DPP-IV, LC-MS analysis of products; format: biochemical; conditions: 100 μM compound, 8.5 μg/mL DPP-IV, 37° C.; reaction product 2-aminobenzyl alcohol; FIG. 4
Chain of DPP-IV (P27487 whole entry, species assumed): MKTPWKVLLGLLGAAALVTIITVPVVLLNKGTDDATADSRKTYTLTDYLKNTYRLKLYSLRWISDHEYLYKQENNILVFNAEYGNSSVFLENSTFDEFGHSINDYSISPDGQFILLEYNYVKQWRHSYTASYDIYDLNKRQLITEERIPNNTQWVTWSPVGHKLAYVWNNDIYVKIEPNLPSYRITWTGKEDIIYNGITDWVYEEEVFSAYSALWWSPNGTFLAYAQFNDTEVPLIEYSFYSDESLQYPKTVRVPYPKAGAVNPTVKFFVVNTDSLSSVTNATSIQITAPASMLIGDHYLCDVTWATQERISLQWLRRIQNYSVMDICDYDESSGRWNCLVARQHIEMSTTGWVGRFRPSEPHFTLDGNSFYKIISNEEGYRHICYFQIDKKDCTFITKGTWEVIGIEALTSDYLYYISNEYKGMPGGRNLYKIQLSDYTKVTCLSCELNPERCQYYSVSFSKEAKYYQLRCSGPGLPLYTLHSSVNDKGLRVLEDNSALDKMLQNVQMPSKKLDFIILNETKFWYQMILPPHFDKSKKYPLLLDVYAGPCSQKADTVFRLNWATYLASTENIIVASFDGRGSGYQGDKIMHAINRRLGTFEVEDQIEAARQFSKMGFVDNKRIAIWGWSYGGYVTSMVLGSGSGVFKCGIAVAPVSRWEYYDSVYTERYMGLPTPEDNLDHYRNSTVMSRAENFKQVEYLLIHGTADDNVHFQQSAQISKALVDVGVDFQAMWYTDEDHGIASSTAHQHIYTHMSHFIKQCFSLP
Method: (§4) Next, enzymatic reactions were carried out under the following conditions using the three compounds synthesized and purified enzymes.
(§5) Final compound concentration: 100 μM
(§6) Final enzyme concentration: 4 nM (β-Gal), 8.5 μg/mL (DPP-IV), 10 U/mL (GGT)
(§7) Reaction temperature: 37° C.
(§8) (2) Enzymatic Reaction Using DPP-IV and GGT
(§9) Instrument: 1260 Infinity (manufactured by Agilent Technologies, Inc.)
(§10) Column: Poroshell 120, 4.6×100 mm (manufactured by Agilent Technologies, Inc.)
(§11) Mobile phase A: water (0.01M ammonium formate)
(§12) Mobile phase B: 80% acetonitrile/water (0.01M ammonium formate)

GGT = assay: Enzymatic reaction with purified GGT, LC-MS analysis of products; format: biochemical
Method: as §4, §5, §6, §7, §8, §9, §10, §11, §12
Next, enzymatic reactions were carried out under the following conditions using the benzyl-position leaving group-converted derivatives synthesized and purified enzyme.
Final enzyme concentration: 10 U/mL (GGT)
Enzymatic reaction using GGT

[2] = test system: SHIN3 cells (high GGT expression) and H226 cells (low GGT expression); assay: CCK-8 assay, cells with high and low GGT expression; format: cell-based, human
Method: as §1, §2
Each type of cell was seeded in 96-well plates (cell density: 1.0×10^4/well) and incubated overnight. The medium was exchanged for fresh medium, and the synthesized derivatives were added (final concentration 1-50 μM, 0.5% DMSO, n=3). After culturing the cells for another 24 hours, a Cell Counting Kit-8 (10 μL/well, manufactured by […]) was added. After 2.5 hours, the 450 nm absorbance was measured by a plate reader, and the number of viable cells was quantified.
Next, benzyl-position leaving group-converted derivatives were subjected to the CCK-8 assay described above.

β-Gal = β-Gal (Escherichia coli, UniProt P00722); assay: Enzymatic reaction with purified β-galactosidase, LC-MS analysis of products; format: biochemical; conditions: 100 μM compound, 4 nM β-Gal, 37° C.; reaction product 2-hydroxybenzyl alcohol; FIG. 4
Chain of β-Gal (P00722 2-1024): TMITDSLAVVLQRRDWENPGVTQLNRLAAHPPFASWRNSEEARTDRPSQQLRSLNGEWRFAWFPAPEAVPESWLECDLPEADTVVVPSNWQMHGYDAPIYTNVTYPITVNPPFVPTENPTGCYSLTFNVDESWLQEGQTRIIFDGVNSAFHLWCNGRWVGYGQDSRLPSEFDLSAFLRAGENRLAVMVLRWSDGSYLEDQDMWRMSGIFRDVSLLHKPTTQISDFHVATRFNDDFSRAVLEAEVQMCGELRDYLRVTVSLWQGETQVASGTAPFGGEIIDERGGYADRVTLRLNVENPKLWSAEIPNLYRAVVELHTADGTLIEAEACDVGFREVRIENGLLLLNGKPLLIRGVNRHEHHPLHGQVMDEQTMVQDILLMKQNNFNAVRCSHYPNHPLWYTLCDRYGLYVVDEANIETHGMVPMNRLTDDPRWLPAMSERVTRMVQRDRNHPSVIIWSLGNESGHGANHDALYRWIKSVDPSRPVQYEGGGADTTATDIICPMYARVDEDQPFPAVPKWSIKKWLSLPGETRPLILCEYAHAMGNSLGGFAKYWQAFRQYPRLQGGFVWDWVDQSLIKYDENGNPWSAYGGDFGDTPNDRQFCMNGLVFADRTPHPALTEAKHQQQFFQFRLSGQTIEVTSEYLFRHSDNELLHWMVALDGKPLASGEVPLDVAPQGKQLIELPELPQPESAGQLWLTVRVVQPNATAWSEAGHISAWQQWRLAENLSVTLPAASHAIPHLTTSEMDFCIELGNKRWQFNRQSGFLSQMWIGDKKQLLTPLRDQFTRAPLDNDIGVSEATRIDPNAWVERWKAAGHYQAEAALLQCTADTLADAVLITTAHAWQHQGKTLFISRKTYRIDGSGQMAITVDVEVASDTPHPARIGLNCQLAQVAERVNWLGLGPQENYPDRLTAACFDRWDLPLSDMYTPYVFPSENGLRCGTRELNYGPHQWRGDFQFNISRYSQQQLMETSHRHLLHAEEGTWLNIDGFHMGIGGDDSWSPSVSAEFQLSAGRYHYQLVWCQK
Method: as §4, §5, §6, §7
(1) Enzymatic Reaction Using β-Galactosidase
Instrument: ACQUITY UPLC (manufactured by Waters Corporation)
as §10, §11, §12

HEK/lac Z cells = assay: CCK-8 assay, cells with high β-Gal expression; format: cell-based, human; conditions: FIG. 5
Method: as §1, §2, §3

HEK293 cells = assay: CCK-8 assay, cells with low β-Gal expression; format: cell-based, human; conditions: 50 μM, after 24 hours, FIG. 5
Method: as §1, §2, §3

[3] = test system: SHIN3 cells and H226 cells; assay: Cell death observation by fluorescence imaging over time with EthD-1 (protocol 1); format: cell-based, human; conditions: SHIN3 vs H226 cultured separately, imaging over 24 hr; FIG. 8
Description: Since changing the types of cells and standardizing the medium to RPMI-1640 made coculture possible, the aim then became to observe cell death under coculture conditions and to construct a quantitative method. It was decided to conduct these studies using compound 3 for GGT (gGlu-FMA) based on the results obtained thus far, and the possibility of visually observing cell death by observation of fluorescence using one type of cell was first explored as an initial study (FIG. 8).
Scan mode: xyzt, x=512, y=512, z=4, t=24. Scale bar: 50 μm.

[4] = test system: SHIN3 cells and H226 cells; assay: Efficacy evaluation by flow cytometry (protocol 3); format: cell-based, human; conditions: 25 μM, 24-hr incubation; compared with +100 μM GGsTop and 0.25% DMSO control; FIG. 10
Method: On the other hand, since it is impossible to quantitatively discuss the extent to which the survival rates of high-expression/low-expression cells have changed, the present inventors studied whether this could be evaluated using flow cytometry (FIG. 10).
(Top) 25 μM model compound, (middle) 25 μM model compound+100 μM GGsTop, (bottom) 0.25% DMSO control. Analysis was carried out after 24-hr incubation.

[5] = test system: cocultured SHIN3 cells and H226 cells; assay: Cell death observation under coculture conditions, time-lapse fluorescence imaging with EthD-1 (protocol 2); format: cell-based, human; conditions: coculture of high and low GGT expression cells, 24 hr time-lapse imaging; FIG. 9
SHIN3 cells = assay: Administration study in peritoneal dissemination model mice; format: in vivo; conditions: 5 mg/kg intraperitoneally each day from day 7, imaged day 21 with gGlu-HMRG, vs PBS; FIG. 17
Method: Peritoneal dissemination model mice were created by intraperitoneal administration of SHIN3 cells (cancer cell line derived from ovarian cancer, high GGT activity) suspended in PBS. From day seven after cell dissemination, 5 mg/kg of gGlu-FMA or PBS (control) was administered intraperitoneally each day. On day 21 after cell dissemination, gGlu-HMRG was administered intraperitoneally, and the mice were sacrificed ten minutes later. After laparotomy, fluorescence images were acquired by a Maestro in vivo imaging device (FIG. 16).

cleavage by DPP-IV (DPP-IV): cleaved
Compound: NCC(=O)N1CCC[C@H]1C(=O)Nc1ccccc1CF [compound 2]
changes in cell viability between cells with high and low enzyme expression [1]: changes in the cell viability were observed

Compound: COP(=O)(CCC(N)C(=O)O)Oc1cccc(CC(=O)O)c1 (stereo not shown) [GGsTop, reference compound]
effect of inhibitor on the GGT enzymatic reaction of the model compound (GGT; inhibitor added at 100 μM): inhibited | effect of GGT inhibitor on survival rate of cells treated with the GGT prodrug ([2]; CCK-8, FIG. 7): completely restored the survival rate

Compound: OCC1O[C@@H](Oc2ccccc2CF)C(O)C(O)[C@H]1O (stereo partly shown) [compound 1]
cleavage by β-Gal (β-Gal): cleaved | survival rate (HEK/lac Z cells; HEK/lac Z cells, 50 μM, after 24 hours): did not drop at all | difference in survival rate between high-expression and low-expression cells (HEK/lac Z cells; HEK/lac Z vs HEK293, up to 50 μM, 24 hours): no significant difference | survival rate (HEK293 cells): did not drop at all

Compound: N[C@@H](CCC(=O)Nc1ccccc1CF)C(=O)O [compound 3]
cell death (EthD-1 dead cell staining) [3]: more cell death occurred in SHIN3 cells | cell death by flow cytometry (EthD-1 dead staining) [4]: selective cell death of SHIN3 cells | cleavage by GGT (GGT; 100 μM compound, 10 U/mL GGT, 37° C., reaction product 2-aminobenzyl alcohol, FIG. 4): cleaved | changes in cell viability between cells with high and low enzyme expression ([2]; SHIN3 (high GGT) vs H226 (low GGT), 1-50 μM, 24 hours, FIG. 7): changes in the cell viability were observed | cell type selectivity ([2]; SHIN3 vs H226, CCK-8, FIG. 7): high cell type selectivity | antitumor activity (CCK-8 assay) ([2]; concentration of 25 μM, FIG. 13): showed an effect | selective cell damage in coculture (EthD-1 dead cell staining) [5]: selectively damages high-expression cells | tumors on the mesentery (macro and fluorescence images) (SHIN3 cells): Tumors appear to be decreased overall
